We go through two compounds from patent US9566341B1, “Compounds including Cox inhibitor moiety and enhanced delivery of active drugs using same” (University of Kentucky Research Foundation, priority 2011, dated 2017).

Molecules are shown by their SMILES. “Also recorded” adds a separate entry of the source. Read-outs that look alike come from different tables or passages of the source.

For data set [1] the following is noted: in vivo, po, cited from earlier work.
For data set [2] the following is noted: cited from earlier work.
Data set [3] has as its system hairless guinea pig micropores. The data set is described as follows: In vivo micropore visualization by gentian violet/India ink staining after MN treatment. Particulars: codrug gel under occlusion, patch changed at 3.5 days. The text has this: The patches were removed at predetermined time points and the site was cleaned with sterile gauze. Gentian violet/India ink was applied as the dyeing agent at the MN treated sites and allowed to dry before excess dye was removed with ethanol and gauze. Both the dyes stain the viable epidermis but not the intact SC. […] The donor was removed from the top of the skin at the end of the study and analyzed by direct injection onto HPLC after suitable dilution using ACN.
All animal experiments were approved by the University of Kentucky IACUC. A proof of concept in vivo experiment was carried out. 4% w/w gels were prepared with the hydrochloride salt form of the codrug. Gels were formulated by dissolving 4% codrug salt in PG: buffer at pH 5.0=10:90 and 3.0% hydroxyethylcellulose (HEC) polymer (required to have a gel formulation). Polymer was dissolved over a 30 minute period to obtain a homogenous gel. The solution was stirred until a viscous gel resulted and then left at room temperature for 1½ to 2 hours to remove bubbles and ensure complete polymerization. The gel was saturated with excess solid and therefore was cloudy. MN treated animals were first cleaned topically with isopropyl alcohol, and 50 MN array was applied twice mutually perpendicular to each other to give a total of 100 pores at each site. 0.3 mL gel doses were applied to the dorsal region of the HGP. After application of the gel the skin was occluded with the occlusive patch and biocclusive tape was applied to prevent evaporation of the formulation. The patch was changed with new formulation at 3.5 days such that more than 50% intact codrug was always present in formulation. […] The patches were removed to obtain data at successive 24 h time intervals.
The patches were removed at predetermined time points and the site was cleaned with sterile gauze. Gentian violet/India ink was applied as the dyeing agent at the MN treated sites and allowed to dry before excess dye was removed with ethanol and gauze. Both the dyes stain the viable epidermis but not the intact SC.

A short description of data set [4]: Chemical stability in 0.3M acetate buffer pH 5.0 at 32° C. In kind it is physicochemical. The text has this: The chemical stability of the prodrugs to hydrolysis and solvolysis at the appropriate temperatures will be determined by measuring concentrations over time in the buffers and solvents used in the solubility and diffusion studies. Chemical degradation rate constants will be important in distinguishing enzymatic degradation from non-enzymatic degradation. Codrug enzymatic metabolism rate constants can also be determined in skin homogenates, to ascertain if the values are useful in the QSPR multiple regression analysis. The kinetics of codrug enzymatic degradation in skin homogenates will be done using abdominal plastic surgery samples. Enzymatic reaction rates will be determined at several different codrug concentrations. The skin is homogenized (Polytron tissue homogenizer and ground glass homogenizer fitted with a glass pestle) in HEPES-buffered Hanks' balanced salt solution and the supernatant is obtained. The enzymatic hydrolysis rates are determined in the homogenate at 37° C. The codrug and its metabolites will be obtained by solid-phase extraction, or another appropriate extraction method. Naltrexone and any other metabolite formed will be assayed by HPLC and expressed as moles of metabolite per minute per milligram of protein. Protein concentrations in the supernatant will be measured by the Bradford method. Controls containing only codrug and HEPES-buffered Hanks' balanced salt solution at 37° C. will also be monitored to determine non-enzymatic hydrolysis.
Chemical and enzymatic stability was determined for the codrugs. For chemical stability studies, the codrug was put in prewarmed 0.3M acetate buffer pH 5.0 after solubilization in <5% ACN, if required, at 32° C. in an incubator. Samples were withdrawn at regular intervals and injected into the HPLC after appropriate dilutions. Enzymatic stability studies are important for estimation of conversion of codrugs in the plasma. […] All stability data was analyzed using pseudo first order kinetics. […]

A short description of data set [5]: Enzymatic stability in hairless guinea pig plasma. It counts as in vitro ADME. The following applies: for enzymatic stability half-life in hairless guinea pig plasma: HGP plasma, 37° C., n=3. The method, then: Chemical and enzymatic stability was determined for the codrugs. For chemical stability studies, the codrug was put in prewarmed 0.3M acetate buffer pH 5.0 after solubilization in <5% ACN, if required, at 32° C. in an incubator. Samples were withdrawn at regular intervals and injected into the HPLC after appropriate dilutions. Enzymatic stability studies are important for estimation of conversion of codrugs in the plasma. For plasma stability studies prewarmed HGP plasma at 37° C. was spiked with codrug solution and samples were withdrawn at regular intervals. 100 μl of plasma sample was extracted with 1 ml of 1:1 ACN:ethyl acetate, vortexed, centrifuged at 10,000 rpm for 20 minutes on a bench top Eppendorf Mini Spin®. The supernatant was decanted into a glass tube and evaporated under nitrogen. Samples were reconstituted in 100 μl ACN and injected onto the HPLC. All stability data was analyzed using pseudo first order kinetics. All stability studies were carried out at least, in triplicate.

Data set [6] can be described thus: In vitro diffusion study across microneedle-treated full thickness Yucatan miniature pig skin. It counts as in vitro ADME. Particulars: for bioconversion of the codrug in the skin: parent drugs in receiver/skin. As to the method: For all in vitro experiments female Yucatan minipig skin (6 months old) were used. Skin sections were obtained by removing the subcutaneous fatty tissue by scalpel dissection, and were stored at −20° C. A PermeGear flow-through (In-Line, Riegelsville, Pa., USA) diffusion cell system was used for the skin permeation studies.
The skin was pierced 20 times with an array containing 5 MN (i.e., to make a total of 100 individual and non-over lapping piercings) before mounting the skin in the diffusion cell for the treatment group. The insertion of MN into skin was carried out manually by applying gentle finger pressure followed by instantaneous removal. MN's were distributed evenly within the 0.95 cm^2 area of skin and could easily be visualized after each 5 MN insertion, as to prevent reapplication in the same area. Single MN array of 5 were used simply out of ease for the experimental procedure. If any damage to an MN section was observed the section was replaced. […] Untreated skin samples were simply placed in the diffusion cells. Diffusion cells were kept at 32° C. using a circulating water bath. Data were collected using skin from a single pig 3-4 cells for the MN treated formulations.
The physiological receiver solution was water adjusted to pH 7.4 containing 20% ethanol, and the flow rate was adjusted to 1.5 ml/h. Each cell was charged with 0.25 ml of the donor in the donor compartment of the chamber. The diffusion cells were covered with a stopper to prevent evaporation. Samples were collected from the receiver compartment in six-hour increments over 48 h or for the length of the treatment. All samples were stored at 4° C. until analyzed by HPLC.
The in vitro permeation experiments were carried out to determine the transdermal flux of the parent drugs and the codrug, permeation coefficients as well as the concentration of the drug molecules in the skin at the end of the study. For all in vitro experiments Yucatan miniature pig (YP) skin was used. Full thickness skin was obtained by removing the subcutaneous fatty tissue by scalpel dissection, and stored at −20° C. A PermeGear flow-through (In-Line, Riegelsville, Pa., USA) diffusion cell system was used for the skin permeation studies. […] The skin was pierced 20 times with a 5 MN array (making 100 individual and non-over lapping piercings) before mounting the skin in the diffusion cell. MN pores were distributed evenly within the 0.95 cm^2 area of skin. Untreated skin samples were mounted directly onto the diffusion cells. The setup was maintained at 32° C. using a circulating water bath. Data collected using a minimum of 3-4 cells per treatment group. The receiver solution was water alkalified to pH 7.4 containing 20% ethanol at 37° C. Gentamycin sulfate (50 mg/L) was added to the receiver for 7 day studies as an antibacterial agent. The receiver flow rate was adjusted to 1.5 ml/h to maintain skin conditions. Each cell was charged with 0.25 ml of the donor and the diffusion cells were covered with a stopper to prevent evaporation of formulation. Samples were collected at regular increments over 48 hours or for the length of the treatment. Drug was concentrated 10 fold by evaporating 1 ml of the collected sample under nitrogen and reconstituting in 100 μl of ACN for quantification. All samples were stored at 4° C. until analyzed by HPLC. The skin was removed at the end of the study and the treatment area was diced into small pieces using a scalpel after removing all excess drugs from top of the skin. Drug was extracted out by immersing the skin pieces in ACN overnight in a shaker water bath at 32° C. Samples were injected into the HPLC after appropriate dilution for quantitative analysis. The donor was also removed and quantified at the end of the study by direct injection onto HPLC after suitable dilution using ACN. All data was analyzed using Fick's first law of diffusion. […]

The nature of data set [7]: Concentration of saturated donor solution. It counts as physicochemical. The following applies: base form; PG:ethanol:water=43:43:14. The method, then:
Solubility studies are carried out by equilibrating large excesses of each drug with the solvent studied. The experiments will be done at skin surface temperature (32° C.). To hasten the attainment of equilibrium, each slurry will be continuously shaken or stirred. Samples will be taken, filtered with an appropriate filter for the solvent, measured with respect to volume, and either assayed directly by HPLC or evaporated to dryness and reconstituted for assay. Binding of the compounds to the filter will be checked to eliminate the possibility of drug adsorption on the filter and/or filter casing. All toxic solvents and other chemicals will be handled with caution, and fume hoods will be used when appropriate.
In vitro experiments. The goal of the first set of in vitro experiments was to estimate flux and skin concentration of the base form of the codrug.

For `O=C1CC[C@@]2(O)[C@H]3Cc4ccc(O)c5c4[C@@]2(CCN3CC2CC2)[C@H]1O5` [NTX, Naltrexone], the oral bioavailability in data set [1] is given as 5-40%; in data set [1] (listed as Naltrexone) it was “five to forty”. In data set [2], the log P – broadly, a log measure of how a compound divides between an organic and an aqueous phase – is 1.8.

`O=C(Cc1ccccc1Nc1c(Cl)cccc1Cl)Oc1ccc2c3c1O[C@H]1C(=O)CC[C@@]4(O)[C@@H](C2)N(CC2CC2)CC[C@]314` [Compound 2A]: the “time the pores stay open after MN treatment” value in data set [3] is 7 days. In data set [4], the “Chemical stability” value is on record as 3.9 ± 0.56 days. Moreover, in data set [5], the “Enzymatic stability” value amounted to 6.4 ± 0.84 min. Moreover, the “enzymatic stability half-life in hairless guinea pig plasma” value in data set [5] was “around 6 minutes”; in data set [5] (listed as Compound 2U), 6.4 ± 0.84 min; in data set [5] (listed as codrug), 6.4 ± 0.84 min. In addition, the “diclofenac skin concentration versus effective skin concentration goal of FIG. 5” value in data set [6] is reported as “did not provide that level”. Besides, the “flux of NTX from the codrug relative to diclofenac flux” value in data set [6] (FIG. 6) is on record as “twice as high”. Besides, the “bioconversion of the codrug in the skin” value in data set [6] (MN treated skin) was “bioconverted completely in the skin”; in data set [6] (MN treated skin, listed as Compound 2U) it was “degraded in the skin to regenerate back the parent drugs”; in data set [6] (MN treated skin, listed as codrug), “completely hydrolyzed in the skin; also recorded: degraded in the skin to regenerate back the parent drugs”. The “steady state flux of naltrexone from the codrug” value in data set [6] (base form, saturated donor PG:ethanol:water=43:43:14, MN treated skin, 48 h, n=3) was 0.42±0.12 nmol/(cm^2/h). The “steady state flux of diclofenac from the codrug” value in data set [6] (base form, saturated donor PG:ethanol:water=43:43:14, MN treated skin, 48 h, n=3, listed as Compound 2U) was 0.19±0.06 nmol/(cm^2/h). Also, the “concentration of saturated donor solution” value in data set [7] was 4500 µg/mL.
